For one test, the target named is T1, EGFR (Homo sapiens, UniProt P00533).
T1 construct: made in house; host or cells: baculovirus expression system
In words: EGFR substrate phosphorylation assay (HTRF). It counts as biochemical. Conditions: Method (A): Enzyme Mix incubated with compound at 20° C. for 1 hr, reaction started by adding Substrate Mix. The procedure, abridged:
(§1)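 Baculovirus-expressed kinase (0.8 nM EGFR or 10 nM ErbB2 in enzyme mix) with Peptide C 0.8 μM and ATP 20 μM (substrate-mix levels), MOPS pH 7.5, MnCl2; 90 min, 20 °C, HTRF anti-phosphotyrosine. Method A adds 1 h enzyme–compound preincubation; B none. pIC50, final compound 0.00027–47.6 μM.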
On the technique in general: Time-resolved FRET reads energy transfer from a long-lived donor to a nearby acceptor.

The target of the next test is T2, ErbB2 (Homo sapiens, UniProt P04626).
T2 construct: made in house; host or cells: baculovirus expression system
T2 sequence (P04626 23-1255): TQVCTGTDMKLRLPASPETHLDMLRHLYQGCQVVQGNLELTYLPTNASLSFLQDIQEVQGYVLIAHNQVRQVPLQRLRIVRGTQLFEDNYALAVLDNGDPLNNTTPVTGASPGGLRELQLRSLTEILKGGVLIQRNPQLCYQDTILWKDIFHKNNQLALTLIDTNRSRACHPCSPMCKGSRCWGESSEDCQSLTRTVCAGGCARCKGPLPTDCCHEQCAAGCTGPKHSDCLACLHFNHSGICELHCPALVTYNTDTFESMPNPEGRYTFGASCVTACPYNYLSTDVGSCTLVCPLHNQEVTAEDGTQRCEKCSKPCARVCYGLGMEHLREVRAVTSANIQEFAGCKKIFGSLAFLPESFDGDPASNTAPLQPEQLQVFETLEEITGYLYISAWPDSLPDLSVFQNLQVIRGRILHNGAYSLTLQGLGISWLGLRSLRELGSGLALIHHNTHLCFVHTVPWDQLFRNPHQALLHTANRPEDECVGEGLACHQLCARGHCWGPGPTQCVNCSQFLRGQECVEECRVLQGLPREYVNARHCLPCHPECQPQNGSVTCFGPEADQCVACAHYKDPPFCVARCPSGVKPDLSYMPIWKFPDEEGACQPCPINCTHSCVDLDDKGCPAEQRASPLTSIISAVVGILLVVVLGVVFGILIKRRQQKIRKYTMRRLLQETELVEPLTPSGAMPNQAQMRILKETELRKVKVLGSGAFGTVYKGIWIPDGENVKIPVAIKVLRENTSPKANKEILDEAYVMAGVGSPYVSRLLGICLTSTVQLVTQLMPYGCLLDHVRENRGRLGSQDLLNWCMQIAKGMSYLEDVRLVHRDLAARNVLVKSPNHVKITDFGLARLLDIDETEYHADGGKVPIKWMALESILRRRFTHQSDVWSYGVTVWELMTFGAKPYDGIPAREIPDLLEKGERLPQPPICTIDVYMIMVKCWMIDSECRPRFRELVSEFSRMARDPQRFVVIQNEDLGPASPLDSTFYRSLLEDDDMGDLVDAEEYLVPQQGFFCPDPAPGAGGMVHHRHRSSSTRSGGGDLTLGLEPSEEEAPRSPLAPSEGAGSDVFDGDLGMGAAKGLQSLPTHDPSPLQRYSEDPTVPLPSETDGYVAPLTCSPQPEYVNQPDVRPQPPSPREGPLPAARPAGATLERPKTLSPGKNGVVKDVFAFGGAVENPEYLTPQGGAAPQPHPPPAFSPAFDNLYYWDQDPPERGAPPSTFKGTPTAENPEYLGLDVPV
In words: ErbB-2 substrate phosphorylation assay (HTRF). It is filed as biochemical. Conditions: Method (A): Enzyme Mix incubated with compound at 20° C. for 1 hr, reaction started by adding Substrate Mix. The procedure, abridged:
as §1

Another test concerns HN5 tumor cells. In words: Method C: Cell Growth Inhibition Assay (CellTiter-Glo), HN5. Conditions: Homo sapiens, 72 h, 3 days, 4-parameter fit. It is filed as cell-based. In a few lines: (§2)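 Cells plated at 500 cells/well, dosed next day with 10-point 1:3 dilution series (0.2% final DMSO) and grown 3 days at 37 °C, 5% CO2. CellTiter-Glo luminescence (total ATP) served as cell-number surrogate; inhibition relative to DMSO controls, IC50 interpolated by 4-parameter fit.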
A general note: In ATP-based viability assays light output follows the ATP content of the culture.

The test system of a further test is BT474 tumor cells. In words: Method C: Cell Growth Inhibition Assay (CellTiter-Glo), BT474. It counts as cell-based. Conditions: Homo sapiens, BT-474, 72 h, 3 days, 4-parameter fit.
The subject of the next test is Colo205 tumor cells. In words: Method C: Cell Growth Inhibition Assay (CellTiter-Glo), Colo205. Conditions: Homo sapiens, COLO 205, 72 h, 3 days, 4-parameter fit. It counts as cell-based. In a few lines: (§3)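 Growth inhibition is expressed as the concentration giving 50% inhibition relative to vehicle controls, derived from a 4-parameter fit. Tumor cells plated at 500 per well were exposed for 3 days to compound (0.2% DMSO) before total ATP was quantified by CellTiter-Glo.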

The subject of the next test is SK-MEL-28 tumor cells. Description: Method C: Cell Growth Inhibition Assay (CellTiter-Glo), SK-MEL-28. Conditions: Homo sapiens, SK-MEL-28, 72 h, 3 days, 4-parameter fit. It counts as cell-based. The procedure, abridged:
as §2

A further test has as its system A375P F11s tumor cells. In words: Method C: Cell Growth Inhibition Assay (CellTiter-Glo), A375P F11s. It is filed as cell-based. Conditions: Homo sapiens, 72 h, 3 days, 4-parameter fit. The procedure, abridged:
as §2

In another test the test system is HT-29 tumor cells. In words: Method C: Cell Growth Inhibition Assay (CellTiter-Glo), HT-29. It counts as cell-based. Conditions: Homo sapiens, HT-29, 72 h, 3 days, 4-parameter fit. In a few lines: as §2
In the next test the test system is SK-MEL-3 tumor cells. In words: Method C: Cell Growth Inhibition Assay (CellTiter-Glo), SK-MEL-3. It counts as cell-based. Conditions: Homo sapiens, SK-MEL3, 72 h, 3 days, 4-parameter fit. In a few lines: as §3

SMILES strings stand for the structures.

T1 sequence (P00533 25-1210): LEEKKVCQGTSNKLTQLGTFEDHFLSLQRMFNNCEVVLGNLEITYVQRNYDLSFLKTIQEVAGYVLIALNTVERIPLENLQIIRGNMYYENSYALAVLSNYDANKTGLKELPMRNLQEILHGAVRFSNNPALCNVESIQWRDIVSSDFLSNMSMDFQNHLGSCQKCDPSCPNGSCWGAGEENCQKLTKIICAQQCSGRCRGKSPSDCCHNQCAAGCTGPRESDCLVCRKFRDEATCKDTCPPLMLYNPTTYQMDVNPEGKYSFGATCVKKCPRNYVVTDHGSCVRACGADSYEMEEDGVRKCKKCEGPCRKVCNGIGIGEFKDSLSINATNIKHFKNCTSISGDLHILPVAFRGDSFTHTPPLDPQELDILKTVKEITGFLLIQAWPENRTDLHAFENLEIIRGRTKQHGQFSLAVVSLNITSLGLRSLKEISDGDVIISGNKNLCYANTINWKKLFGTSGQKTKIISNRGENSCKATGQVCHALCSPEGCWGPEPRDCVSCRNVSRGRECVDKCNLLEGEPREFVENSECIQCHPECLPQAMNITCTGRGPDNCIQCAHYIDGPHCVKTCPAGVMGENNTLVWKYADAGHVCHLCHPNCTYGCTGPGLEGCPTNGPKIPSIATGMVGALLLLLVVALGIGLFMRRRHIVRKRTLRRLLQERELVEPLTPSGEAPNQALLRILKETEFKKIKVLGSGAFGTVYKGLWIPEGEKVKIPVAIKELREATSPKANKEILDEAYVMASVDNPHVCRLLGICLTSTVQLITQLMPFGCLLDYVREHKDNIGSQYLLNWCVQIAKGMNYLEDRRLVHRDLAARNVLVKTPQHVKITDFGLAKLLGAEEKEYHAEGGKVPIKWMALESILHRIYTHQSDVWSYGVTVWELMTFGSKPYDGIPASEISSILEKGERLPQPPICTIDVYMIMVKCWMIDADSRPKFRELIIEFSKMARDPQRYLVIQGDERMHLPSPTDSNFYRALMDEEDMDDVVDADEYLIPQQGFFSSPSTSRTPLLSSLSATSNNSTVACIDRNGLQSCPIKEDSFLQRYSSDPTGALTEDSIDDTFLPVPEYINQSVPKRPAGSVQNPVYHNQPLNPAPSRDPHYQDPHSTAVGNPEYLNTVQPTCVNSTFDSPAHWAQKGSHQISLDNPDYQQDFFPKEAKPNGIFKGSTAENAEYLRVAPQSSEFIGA

Take `NS(=O)(=O)CCc1cccc(Nc2nccc(-c3scnc3-c3cccc(NC(=O)c4c(F)cccc4F)c3)n2)c1` [Example 95, N-(3-{5-[2-({3-[2-(Aminosulfonyl)ethyl]phenyl}amino)-4-pyrimidinyl]-1,3-thiazol-4-yl}phenyl)-2,6-difluorobenzamide]: the IC50 was less than 0.1 µM on EGFR; less than 0.1 µM at ErbB2; less than 0.1 µM in the test on HN5 tumor cells; less than 0.1 µM with BT474 tumor cells; greater than 1 µM with Colo205 tumor cells; greater than 1 µM with SK-MEL-28 tumor cells. The IC50 is 0.1 to 1 µM with A375P F11s tumor cells, 0.1 to 1 µM with HT-29 tumor cells and greater than 1 µM with SK-MEL-3 tumor cells.

For `Cc1nc(-c2cccc(NC(=O)c3c(F)cccc3F)c2)c(-c2ccnc(Nc3cccc(CN4CCCC4)c3)n2)s1` [Example 104, 2,6-Difluoro-N-{3-[2-methyl-5-(2-{[3-(1-pyrrolidinylmethyl)phenyl]amino}-4-pyrimidinyl)-1,3-thiazol-4-yl]phenyl}benzamide], the IC50 is less than 0.1 µM on EGFR; less than 0.1 µM on ErbB2; 0.1 to 1 µM with HN5 tumor cells; less than 0.1 µM in the test with BT474 tumor cells; 0.1 to 1 µM with Colo205 tumor cells; greater than 1 µM with SK-MEL-28 tumor cells. For the same compound, the IC50 with A375P F11s tumor cells, with HT-29 tumor cells and with SK-MEL-3 tumor cells was 0.1 to 1 µM in each case.

As for `Cc1nc(-c2cccc(NC(=O)c3c(F)cccc3F)c2)c(-c2ccnc(Nc3ccc(OCCN(C)C)c(F)c3)n2)s1` [Example 105, N-[3-(5-{2-[(4-{[2-(Dimethylamino)ethyl]oxy}-3-fluorophenyl)amino]-4-pyrimidinyl}-2-methyl-1,3-thiazol-4-yl)phenyl]-2,6-difluorobenzamide], the half-inhibitory concentration (IC50) on EGFR is less than 0.1 µM; at ErbB2, less than 0.1 µM; in the test on HN5 tumor cells, less than 0.1 µM; with BT474 tumor cells, less than 0.1 µM; with Colo205 tumor cells it was 0.1 to 1 µM; in the test on SK-MEL-28 tumor cells, greater than 1 µM. In addition, the IC50 with A375P F11s tumor cells is 0.1 to 1 µM; with HT-29 tumor cells it was 0.1 to 1 µM; in the test with SK-MEL-3 tumor cells, greater than 1 µM.

For the compound `Cc1nc(-c2cccc(NC(=O)c3c(F)cccc3F)c2)c(-c2ccnc(Nc3ccc(OC4CCNCC4)c(F)c3)n2)s1` [Example 107, 2,6-DUDuoro-N-{3-[5-(2-{[3-fluoro-4-(4-piperidinyloxy)phenyl]amino}-4-pyrimidinyl)-2-methyl-1,3-thiazol-4-yl]phenyl}benzamide], the IC50 is less than 0.1 µM at EGFR; less than 0.1 µM on ErbB2; less than 0.1 µM in the test with HN5 tumor cells; less than 0.1 µM with BT474 tumor cells; 0.1 to 1 µM with Colo205 tumor cells; 0.1 to 1 µM in the test with SK-MEL-28 tumor cells. Moreover, the IC50 in the test on A375P F11s tumor cells, with HT-29 tumor cells and with SK-MEL-3 tumor cells was 0.1 to 1 µM in each case.

With `Cc1nc(-c2cccc(NC(=O)c3c(F)cccc3F)c2)c(-c2ccnc(Nc3ccc(OC4CCN(C)CC4)c(F)c3)n2)s1` [Example 108, 2,6-Difluoro-N-(3-{5-[2-({3-fluoro-4-[(1-methyl-4-piperidinyl)oxy]phenyl}amino)-4-pyrimidinyl]-2-methyl-1,3-thiazol-4-yl}phenyl)benzamide], the IC50 was less than 0.1 µM at EGFR; less than 0.1 µM at ErbB2; 0.1 to 1 µM with HN5 tumor cells; less than 0.1 µM in the test on BT474 tumor cells; 0.1 to 1 µM with Colo205 tumor cells; greater than 1 µM with SK-MEL-28 tumor cells. Also, the results for the IC50 in the test with A375P F11s tumor cells, in the test on HT-29 tumor cells and with SK-MEL-3 tumor cells were 0.1 to 1 µM, 0.1 to 1 µM and greater than 1 µM, respectively.

For `CC(=O)N1CCC(Oc2ccc(Nc3nccc(-c4sc(C)nc4-c4cccc(NC(=O)c5c(F)cccc5F)c4)n3)cc2F)CC1` [Example 109, N-(3-{5-[2-({4-[(1-Acetyl-4-piperidinyl)oxy]-3-fluorophenyl}amino)-4-pyrimidinyl]-2-methyl-1,3-thiazol-4-yl}phenyl)-2,6-difluorobenzamide], the IC50 on EGFR was less than 0.1 µM; at ErbB2 it was less than 0.1 µM; in the test on HN5 tumor cells, 0.1 to 1 µM; with BT474 tumor cells, 0.1 to 1 µM; in the test with Colo205 tumor cells it was greater than 1 µM; in the test with SK-MEL-28 tumor cells, greater than 1 µM. Besides, the IC50 in the test with A375P F11s tumor cells, in the test with HT-29 tumor cells and in the test on SK-MEL-3 tumor cells was greater than 1 µM in each case.

Take `Cc1nc(-c2cccc(NC(=O)c3c(F)cccc3F)c2)c(-c2ccnc(Nc3ccc(OC4CCN(C(C)C)CC4)c(F)c3)n2)s1` [Example 111, 2,6-Difluoro-N-[3-(5-{2-[(3-fluoro-4-{[1-(1-methylethyl)-4-piperidinyl]oxy}phenyl)amino]-4-pyrimidinyl}-2-methyl-1,3-thiazol-4-yl)phenyl]benzamide]: the IC50 on EGFR was less than 0.1 µM; at ErbB2, less than 0.1 µM; with HN5 tumor cells it was 0.1 to 1 µM; with BT474 tumor cells it was less than 0.1 µM; with Colo205 tumor cells, 0.1 to 1 µM; in the test with SK-MEL-28 tumor cells, 0.1 to 1 µM. Further, the IC50 with A375P F11s tumor cells, in the test on HT-29 tumor cells and with SK-MEL-3 tumor cells was 0.1 to 1 µM throughout.

For `CCc1nc(-c2cccc(NC(=O)c3c(F)cccc3F)c2)c(-c2ccnc(Nc3ccc(OCCN(C)C)c(F)c3)n2)s1` [Example 112, N-[3-(5-{2-[(4-{[2-(Dimethylamino)ethyl]oxy}-3-fluorophenyl)amino]-4-pyrimidinyl}-2-ethyl-1,3-thiazol-4-yl)phenyl]-2,6-difluorobenzamide], the IC50 was less than 0.1 µM on EGFR; less than 0.1 µM at ErbB2; 0.1 to 1 µM with HN5 tumor cells; less than 0.1 µM in the test with BT474 tumor cells; 0.1 to 1 µM with Colo205 tumor cells; greater than 1 µM in the test with SK-MEL-28 tumor cells. The IC50 in the test with A375P F11s tumor cells was 0.1 to 1 µM; in the test on HT-29 tumor cells, 0.1 to 1 µM; in the test on SK-MEL-3 tumor cells, greater than 1 µM.

In the case of `CCc1nc(-c2cccc(NC(=O)c3c(F)cccc3F)c2)c(-c2ccnc(Nc3ccc(OCCN4CCCC4)c(Cl)c3)n2)s1` [Example 113, N-[3-(5-{2-[(3-Chloro-4-{[2-(1-pwrolidinyl)ethyl]oxy}phenyl)amino]-4-pyrimidinyl}-2-ethyl-1,3-thiazol-4-yl)phenyl]-2,6-difluorobenzamide], the IC50 on EGFR is less than 0.1 µM; on ErbB2, less than 0.1 µM; with HN5 tumor cells it was 0.1 to 1 µM; in the test on BT474 tumor cells, 0.1 to 1 µM; with Colo205 tumor cells it was greater than 1 µM; with SK-MEL-28 tumor cells, greater than 1 µM. Besides, the IC50 in the test on A375P F11s tumor cells, with HT-29 tumor cells and with SK-MEL-3 tumor cells was 0.1 to 1 µM in each case.

As to `CCc1nc(-c2cccc(NC(=O)c3c(F)cccc3F)c2)c(-c2ccnc(Nc3ccc(OCCN(C)C)c(Cl)c3)n2)s1` [Example 114, N-[3-(5-{2-[(3-Chloro-4-{[2-(dimethylamino)ethyl]oxy}phenyl)amino]-4-pyrimidinyl}-2-ethyl-1,3-thiazol-4-yl)phenyl]-2,6-difluorobenzamide], the IC50 was less than 0.1 µM on EGFR; less than 0.1 µM on ErbB2; 0.1 to 1 µM with HN5 tumor cells; 0.1 to 1 µM with BT474 tumor cells; 0.1 to 1 µM with Colo205 tumor cells; 0.1 to 1 µM with SK-MEL-28 tumor cells. Further, the IC50 in the test on A375P F11s tumor cells is 0.1 to 1 µM; in the test with HT-29 tumor cells it was 0.1 to 1 µM; in the test on SK-MEL-3 tumor cells, greater than 1 µM.

As for `CC(C)c1nc(-c2cccc(NC(=O)c3c(F)cccc3F)c2)c(-c2ccnc(Nc3ccc(OCCN4CCCC4)c(Cl)c3)n2)s1` [Example 121, N-{3-[5-{2-[(3-chloro-4-{[2-(1-pyrrolidinyl)-ethyl]oxy}phenyl)amino]-4-pyrimidinyl}-2-(1-methylethyl)-1,3-thiazol-4-yl]phenyl}-2,6-difluorobenzamide], the IC50 is less than 0.1 µM at EGFR; less than 0.1 µM on ErbB2; 0.1 to 1 µM in the test with HN5 tumor cells; 0.1 to 1 µM in the test with BT474 tumor cells; 0.1 to 1 µM with Colo205 tumor cells; 0.1 to 1 µM with SK-MEL-28 tumor cells. Further, the IC50 with A375P F11s tumor cells, in the test on HT-29 tumor cells and with SK-MEL-3 tumor cells was 0.1 to 1 µM each time.

Consider `CN1CCc2ccc(Nc3nccc(-c4sc(C5CCNCC5)nc4-c4cccc(NC(=O)c5c(F)cccc5F)c4)n3)cc2C1` [Example 124, 2,6-Difluoro-N-{3-[5-{2-[(2-methyl-1,2,3,4-tetrahydro-7-isoquinolinyl)amino]-4-pyrimidinyl}-2-(4-piperidinyl)-1,3-thiazol-4-yl]phenyl}benzamide], for which the IC50 at EGFR is less than 0.1 µM; at ErbB2 it was less than 0.1 µM; with HN5 tumor cells, 0.1 to 1 µM; with BT474 tumor cells, 0.1 to 1 µM; with Colo205 tumor cells, 0.1 to 1 µM; in the test with SK-MEL-28 tumor cells, greater than 1 µM. The IC50 with A375P F11s tumor cells, with HT-29 tumor cells and in the test on SK-MEL-3 tumor cells was greater than 1 µM throughout.

Consider `O=C(Nc1cccc(-c2nc(CO)sc2-c2ccnc(Nc3ccc(OCCN4CCCC4)c(F)c3)n2)c1)c1c(F)cccc1F` [Example 126, 2,6-Difluoro-N-{3-[5-{2-[(3-fluoro-4-{[2-(1-pyrrolidinyl)ethyl]oxy}phenyl)amino]-4-pyrimidinyl}-2-(hydroxymethyl)-1,3-thiazol-4-yl]phenyl}benzamide], for which the IC50 is less than 0.1 µM at EGFR; less than 0.1 µM on ErbB2; less than 0.1 µM in the test on HN5 tumor cells; less than 0.1 µM in the test on BT474 tumor cells; 0.1 to 1 µM in the test on Colo205 tumor cells; 0.1 to 1 µM with SK-MEL-28 tumor cells. Further, the IC50 in the test on A375P F11s tumor cells, with HT-29 tumor cells and with SK-MEL-3 tumor cells was 0.1 to 1 µM in each case.

The IC50 is the concentration needed to halve the response being measured.

For the origin of these results see patent US20110098296A1, “Thiazole And Oxazole Kinase Inhibitors” (priority 2007, published 2011).
